In test [1] the test system is Mus musculus. Put plainly: Analgesic activity in ICR mouse assessed as pain threshold at 0.1 umol/kg administered through oral gavage after 30 mins by tail flick method. It counts as functional.
Test [2] has as its system Mus musculus. Put plainly: Antiinflammatory activity in ICR mouse assessed as inhibition of xylene-induced ear edema at 0.1 umol/kg, po administered 30 mins prior to xylene challenge measured after 2hrs. It counts as functional.
Test [3] relates to Mus musculus. Kind of test: Analgesic activity in ICR mouse assessed as pain threshold at 0.1 umol/kg administered through oral gavage after 180 mins by tail flick method. It is filed as functional.
The test system of test [4] is Mus musculus. Kind of test: Analgesic activity in ICR mouse assessed as pain threshold at 0.1 umol/kg administered through oral gavage after 90 mins by tail flick method. It counts as functional.
Test [5] is described as follows: Antioxidant activity in H2O2/Fe(II)-stimulated rat PC12 cells assessed as OH radical scavenging activity measured by cell survival preincubated with compound for 1 hr measured after 14 hrs by MTT assay. It counts as functional, cell-based. Conditions: pc-12.
Test [6] concerns Mus musculus. Kind of test: Analgesic activity in ICR mouse assessed as pain threshold at 0.1 umol/kg administered through oral gavage after 150 mins by tail flick method. It counts as functional.
The subject of test [7] is Mus musculus. Put plainly: Analgesic activity in ICR mouse assessed as pain threshold at 0.1 umol/kg administered through oral gavage after 60 mins by tail flick method. It is filed as functional.
Test [8] in a line: Antioxidant activity in rat PC12 cells assessed as H2O2 radical scavenging activity measured as cell survival preincubated with compound for 1 hr measured after 14 hrs by MTT assay. It is filed as functional, cell-based. The following applies: pc-12.
Test [9] has as its system Mus musculus. Kind of test: Analgesic activity in ICR mouse assessed as pain threshold at 0.1 umol/kg administered through oral gavage after 120 mins by tail flick method. It counts as functional.
Test [10] can be described thus: Antioxidant activity in sodium nitroprusside-stimulated rat PC12 cells assessed as NO radical scavenging activity measured as cell survival preincubated with compound for 1 hr followed by addition of sodium nitroprusside for 2 measured after 14 hrs by MTT assay. It is filed as functional, cell-based. Conditions: pc-12.
Test [11] relates to Mus musculus. Put plainly: Analgesic activity in ICR mouse assessed as pain threshold at 0.15 umol/kg administered through oral gavage after 120 mins by tail flick method. It is filed as functional.
For test [12], the system named is Mus musculus. Put plainly: Analgesic activity in ICR mouse assessed as pain threshold at 0.055 umol/kg administered through oral gavage after 150 mins by tail flick method. It is filed as functional.
In test [13] the test system is Mus musculus. Put plainly: Antiinflammatory activity in ICR mouse assessed as inhibition of xylene-induced ear edema at 0.15 umol/kg, po administered 30 mins prior to xylene challenge measured after 2hrs. It counts as functional.
In test [14] the test system is Mus musculus. Put plainly: Analgesic activity in ICR mouse assessed as pain threshold at 0.05 umol/kg administered through oral gavage after 30 mins by tail flick method. It is filed as functional.
Test [15] has as its system Mus musculus. Put plainly: Analgesic activity in ICR mouse assessed as pain threshold at 0.15 umol/kg administered through oral gavage after 60 mins by tail flick method. It counts as functional.
Test [16] has as its system Mus musculus. Put plainly: Analgesic activity in ICR mouse assessed as pain threshold at 0.05 umol/kg administered through oral gavage after 90 mins by tail flick method. It counts as functional.
The subject of test [17] is Mus musculus. Put plainly: Analgesic activity in ICR mouse assessed as pain threshold at 0.055 umol/kg administered through oral gavage after 180 mins by tail flick method. It is filed as functional.
Test [18] concerns HUVEC. Kind of test: Inhibition of simulated ischemia/reperfusion-induced ROS production in human HUVEC cells at 30 ug/ml after 2 hrs by Hoechst 33342 dye based fluorescence assay. It is filed as functional, cell-based.
Test [19] has as its system Mus musculus. Put plainly: Analgesic activity in ICR mouse assessed as pain threshold at 0.15 umol/kg administered through oral gavage after 150 mins by tail flick method. It is filed as functional.
The test system of test [20] is Mus musculus. Put plainly: Analgesic activity in ICR mouse assessed as pain threshold at 0.15 umol/kg administered through oral gavage after 30 mins by tail flick method. It is filed as functional.
Test [21] has as its system Mus musculus. Put plainly: Analgesic activity in ICR mouse assessed as pain threshold at 0.05 umol/kg administered through oral gavage after 60 mins by tail flick method. It counts as functional.
Test [22] deals with HUVEC. Kind of test: Inhibition of simulated ischemia/reperfusion-induced human HUVEC cells death assessed as increase in tubular mitochondria levels at 30 ug/ml after 2 hrs by Hoechst 33342 dye based fluorescence assay (reference value: 11.3 +/- 2.1 %). It counts as functional. Also noted: scale not given: the % may be the effect or the level left.
The test system of test [23] is Mus musculus. Kind of test: Analgesic activity in ICR mouse assessed as pain threshold at 0.15 umol/kg administered through oral gavage after 90 mins by tail flick method. It is filed as functional.
The test system of test [24] is Mus musculus. Kind of test: Antiinflammatory activity in ICR mouse assessed as inhibition of xylene-induced ear edema at 0.05 umol/kg, po administered 30 mins prior to xylene challenge measured after 2hrs. It is filed as functional.
Test [25] relates to Mus musculus. Kind of test: Analgesic activity in ICR mouse assessed as pain threshold at 0.15 umol/kg administered through oral gavage after 180 mins by tail flick method. It is filed as functional.
For test [26], the system named is Mus musculus. Put plainly: Analgesic activity in ICR mouse assessed as pain threshold at 0.05 umol/kg administered through oral gavage after 120 mins by tail flick method. It is filed as functional.
For test [27], the system named is HUVEC. Kind of test: Inhibition of simulated ischemia/reperfusion-induced human HUVEC cells death assessed as decrease in fragmented mitochondria at 30 ug/ml after 2 hrs by Hoechst 33342 dye based fluorescence assay. It counts as functional, cell-based.
Test [28] deals with HUVEC. Put plainly: Inhibition of simulated ischemia/reperfusion-induced cytochrome C release in human HUVEC cells at 30 ug/ml after 2 hrs by fluorescence assay (reference value: 75.3 +/- 5.2 %). It is filed as functional. Also noted: scale not given: the % may be the effect or the level left.

The source made the active and inactive calls.

For the compound `CC1(C)N([O])C(c2ccc(OCC(=O)N[C@@H](Cc3ccc(O)cc3)C(=O)N[C@@H](CCCCN)C(=O)O)cc2)=[N+]([O-])C1(C)C`, the Activity in test [1] is 12.56%; in [3], 13.58%; in [4], 29.31%; in test [6], 33.73%; in test [7] it was 19.35%; in test [9], 38.33%. In test [2], the “inhibition (INH)” value is recorded as 36.94%. In addition, the EC50 in test [5] turned out to be 22.7 µM; in test [8] it was 31.3 µM; in test [10], 8.1 µM.
`CC1(C)N([O])C(c2ccc(OCC(=O)N[C@@H](CCCNC(=N)N)C(=O)N[C@@H](Cc3ccc(O)cc3)C(=O)O)cc2)=[N+]([O-])C1(C)C`: the Activity in test [1] was 10.1%; in [3], 10.05%; in [4], 26.97%; in test [6] it was 11.91%; in test [7] it was 14.31%; in [9], 13.18%. Moreover, the “inhibition (INH)” value in test [2] is given as 28.29%. In addition, the results for the EC50 in test [5], in test [8] and in test [10] were 22.7 µM, 31.3 µM and 8.1 µM, respectively.
For `CC1(C)N([O])C(c2ccc(OCC(=O)NCCCNC(=O)[C@H](Cc3ccc(O)cc3)NC(=O)[C@@H](N)CCCNC(=N)N)cc2)=[N+]([O-])C1(C)C`, the Activity in test [11] was found to be 68.42%; in test [12], 19.35%; in test [1] it was 16.3%; in [14], 8.16%; in test [15], 33.47%; in [3], 22.01%. Besides, the Activity stood at 44.76% in [4]; 18.37% in test [16]; 16.28% in test [17]; 51.33% in [6]; 29.36% in test [7]; 52.45% in [19]. The Activity in test [20] was 20.17%; in test [21], 12.31%; in [22] it was 55.7%; in [9], 60.32%; in [23], 50.35%; in test [25], 30.34%. The Activity in test [26] is recorded as 25.36%; in test [28], 27.8%. The “inhibition (INH)” value in [13] turned out to be 78.58%; in test [2], 73.47%; in [24], 37.33%. The EC50 in test [5] was found to be 22.7 µM; in test [8], 31.3 µM; in [10], 8.1 µM. For the same compound, the result in [18] was Active. For the same compound, the inhibition entry in test [27] is “Active”.
As for `COc1cc(O)ccc1C[C@H](NC(=O)COc1ccc(C2=[N+]([O-])C(C)(C)C(C)(C)N2[O])cc1)C(=O)N[C@@H](CCCNC(=N)N)C(=O)O`, the Activity in test [1] is reported as 11.37%; in test [3], 11.24%; in [4], 22.47%; in test [6] it was 24.12%; in test [7], 16.33%; in test [9] it was 27.14%. The “inhibition (INH)” value in test [2] is reported as 29.27%. In addition, the EC50 was 22.7 µM in test [5], 31.3 µM in test [8] and 8.1 µM in [10].
`CC1(C)N([O])C(c2ccc(OCC(=O)N[C@@H](Cc3ccc(O)cc3)C(=O)N[C@@H](CCCNC(=N)N)C(=O)O)cc2)=[N+]([O-])C1(C)C`: the Activity in test [1] came out at 12.53%; in test [3], 14.45%; in [4], 31.45%; in test [6], 34.14%; in [7], 18.66%; in [9], 40.01%. Further, in test [2], the “inhibition (INH)” value was found to be 40.86%. The figures for the EC50 in [5], in test [8] and in test [10] were 22.7 µM, 31.3 µM and 8.1 µM, respectively.
For `CCc1cc(O)ccc1C[C@H](NC(=O)COc1ccc(C2=[N+]([O-])C(C)(C)C(C)(C)N2[O])cc1)C(=O)N[C@@H](CCCNC(=N)N)C(=O)O`, the Activity in test [1] was found to be 10.78%; in [3] it was 15.04%; in test [4] it was 21.89%; in [6], 22.34%; in [7], 17.31%; in test [9], 22.78%. Moreover, the “inhibition (INH)” value in test [2] is on record as 30.26%. The EC50 in test [5] was 22.7 µM; in test [8], 31.3 µM; in test [10], 8.1 µM.
As for `CC1(C)N([O])C(c2ccc(OCC(=O)N[C@@H](Cc3ccc(O)c(CO)c3)C(=O)N[C@@H](CCCNC(=N)N)C(=O)O)cc2)=[N+]([O-])C1(C)C`, the Activity was 12.12% in test [1]; 20.14% in test [3]; 22.37% in test [4]; 33.56% in test [6]; 19.13% in test [7]; 25.78% in [9]. Besides, the “inhibition (INH)” value in test [2] came to 31.23%. Moreover, the EC50 in test [5] is 22.7 µM; in test [8], 31.3 µM; in test [10], 8.1 µM.
As for `CC1(C)N([O])C(c2ccc(OCC(=O)N[C@@H](Cc3ccc(O)cc3)C(=O)N[C@@H](CCC(=O)O)C(=O)O)cc2)=[N+]([O-])C1(C)C`, the Activity in test [1] amounted to 11.1%; in test [3], 14.22%; in test [4], 26.41%; in test [6], 15.11%; in test [7] it was 13.44%; in test [9] it was 13.58%. In [2], the “inhibition (INH)” value was determined as 32.22%. The figures for the EC50 in [5], in test [8] and in test [10] were 22.7 µM, 31.3 µM and 8.1 µM, respectively.
Take `Cc1cc(C[C@H](NC(=O)COc2ccc(C3=[N+]([O-])C(C)(C)C(C)(C)N3[O])cc2)C(=O)N[C@@H](CCCNC(=N)N)C(=O)O)ccc1O`: the Activity in test [1] was 10.24%; in test [3], 12.38%; in [4] it was 22.1%; in [6], 13.25%; in [7] it was 18.97%; in test [9], 31.21%. Also, the “inhibition (INH)” value in test [2] came out at 29.47%. Also, the figures for the EC50 in [5], in test [8] and in test [10] were 22.7 µM, 31.3 µM and 8.1 µM, respectively.
Consider `CC1(C)N([O])C(c2ccc(OCC(=O)NCCNC(=O)[C@H](Cc3ccc(O)cc3)NC(=O)[C@@H](N)CCCNC(=N)N)cc2)=[N+]([O-])C1(C)C`, for which the Activity in test [11] was determined as 50.61%; in test [12], 11.91%; in [1] it was 15.28%; in test [14], 7.48%; in [15], 28.65%; in test [3], 23.15%. Further, the Activity stood at 35.74% in test [4]; 13.57% in test [16]; 9.14% in [17]; 37.11% in test [6]; 25.75% in test [7]; 39.13% in test [19]. The Activity in [20] is recorded as 17.89%; in test [21] it was 10.35%; in [22], 41.5%; in test [9] it was 48.17%; in test [23], 32.33%; in [25], 27.67%. In addition, the Activity is 15.78% in test [26] and 47.8% in [28]. For the same compound, the figures for the “inhibition (INH)” value in test [13], in test [2] and in test [24] were 58.15%, 50.68% and 21.21%, respectively. Further, the EC50 in test [5] worked out at 33.9 µM; in [8], 32.5 µM; in test [10] it was 19.5 µM. In addition, the result in test [18] was Active. The inhibition result in test [27] was “Active”.

Source of the values: ChEMBL document CHEMBL3784981, “Anti-inflammatory, analgesic and antioxidant activities of novel kyotorphin-nitroxide hybrid molecules” (Bioorg Med Chem Lett, 2016).
